# In US20170131257A1, “SYSTEMS AND METHODS OF REMOVING AND MANAGING HEAVY METALS” (priority 2007, published 2017):
# What was measured:
# [1] = Chelation between mercury and phytic acid at different pH levels; conditions: pH levels including acidic levels commonly found in the stomach
# Excerpt: An amount of food 72 that may contain a concentration of the heavy metal (“contaminated food”) is consumed with an amount of the ligand 74, or, near the time of consuming the ligand 74. In one implementation, the ligand 74 is phytic acid. The ligand 74 is preferably in an amount suitable for at least substantially bonding to the mercury contained within the food 72. The ligand 74 may be prepared in the form of a marinade or sauce directly applied to the food 72, or may be a separate supplement such as a pill, alternate food source, or the like. Ingestion 76 may provide mixing of the food 72 and ligand 74. When the food 72 and ligand 74 are mixed, then chelation 78 causes the mercury or other heavy metal in the food 72 to bond to the ligand 74, thereby forming a chelate 82. The chelate 82 causes food 72 containing some mercury to become a clean food 80, substantially free of the mercury. The clean food 80 proceeds to normal digestion 84, while the chelate 82 proceeds to safe egestion 86 from the body. Thus, the mercury contained within food 72 is passed through the living organism without digestion 84.
# Zebra Fish = format: in vivo
# Method: Following EPA Method 7473, a total of 44 Zebra fish were randomized into four one gallon tanks and fed an experimental or control diet for 6 days. On the seventh day the fish were not fed so that any food being digested would have been absorbed or eliminated. The fish were fed 1.0 gram of food twice a day the first day. On the second day the fish were fed 0.5 grams twice a day. On days 3-6 the fish were fed 0.5 gram once a day.
# The control and experimental feed was prepared using:
# 9.8 g. Frozen Thawed Brine Shrimp
# The corn starch and water were boiled for 2 minutes then mixed with the remaining ingredients. The basic food was divided into four groups. The study groups consisted of: the control (Group C), an experimental group in which phytic acid di-sodium salt was added to the feed at 5% by […] (Group A), an experimental group in which 15 μg mercuric iodide salt per gram of food was added (Group B), and lastly Group D in which fish were fed the above stated amounts of mercuric iodide salt and phytic acid di-sodium salt.
# The analysis was conducted by a contracted company, Northwest Pacific Labs. Samples were stratified by treatment and randomly sampled. A test of atomic absorption was used to determine absorbed mercury, after calibrating the instrument.
# [2] = Mercury binding test of substrates in a salt solution
structure (smiles),measurement,setting,value
"O=P(O)(O)O[C@H]1[C@H](OP(=O)(O)O)[C@@H](OP(=O)(O)O)[C@H](OP(=O)(O)O)[C@@H](OP(=O)(O)O)[C@H]1OP(=O)(O)O [Phytic Acid, phytic acid]",chelation with mercury across pH,[1],can occur at a wide range of pH levels
same,reduction of mercury absorption,"Zebra Fish; Group D (phytic acid plus mercury) vs mercury alone, baselines of mercury controlled for, seven day time frame",50%
same,"Total Hg Wet Weight, Mean","Zebra Fish; Group D: phytic acid 5% per wt. and 15 micrograms HgI2 per gram food, fed 6 days, N=4",.1047
same,"absorbed mercury, group D vs mercury-alone group B","Zebra Fish; weighted sample, Mann-Whitney test, Sig=0.000",less absorbed mercury
same,binding of mercury by the substrate,[2],would bind mercury
